Like-named read-outs stand apart in the source and are kept apart here. Values belong to the molecule of their own block, whether it stands above or below them.
Assays:
[1] = tested on: Key Broadleaf Weed and Crop Species; experiment: Post-emergent Test II herbicidal activity (Table 15); type: in vivo; conditions: post-emergence, 336 h, 14 d; for pest or weed control at 35 g/ha: 35 g ai/ha; for pest or weed control at 70 g/ha: 70 g ai/ha; for pest or weed control at 140 g/ha: 140 g ai/ha
Method in brief: (§1)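 Herbicidal effect scored as percent visual injury, 14 d after post-emergent application. Spray solutions contained acetone, DMSO, isopropyl alcohol, crop oil concentrate and surfactant, applied at 187 L/ha to young plants (1-2 true leaves).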

[2] = tested on: Key Grass and Sedge Weeds as well as Grass Crops; experiment: Post-emergent Test II herbicidal activity (Table 16); type: in vivo; conditions: post-emergence, 336 h; for pest or weed control at 35 g/ha: 35 g ai/ha; for pest or weed control at 70 g/ha: 70 g ai/ha; for pest or weed control at 140 g/ha: 140 g ai/ha
Method in brief: as §1

[3] = Abutilon theophrasti, velvetleaf (Abutilon theophrasti), read-out: Visual Growth Reduction (%) 14 Days After Application, ABUTH
[4] = Amaranthus retroflexus, redroot pigweed (Amaranthus retroflexus), read-out: Visual Growth Reduction (%) 14 Days After Application, AMARE
[5] = Brassica napus, oilseed rape, canola (Brassica napus), read-out: Visual Growth Reduction (%) 14 Days After Application, BRSNN
[6] = Chenopodium album, lambsquarters (Chenopodium album), read-out: Visual Growth Reduction (%) 14 Days After Application, CHEAL
[7] = Euphorbia heterophylla, wild poinsettia (Euphorbia heterophylla), read-out: Visual Growth Reduction (%) 14 Days After Application, EPHHL
[8] = Helianthus annuus, sunflower (Helianthus annuus), read-out: Visual Growth Reduction (%) 14 Days After Application, HELAN
[9] = Cyperus esculentus, yellow nutsedge (Cyperus esculentus), 14 d, read-out: Visual Growth Reduction (%) 14 Days After Application, CYPES
[10] = Echinochloa crus-galli, barnyardgrass (Echinochloa crus-galli), 14 d, read-out: Visual Growth Reduction (%) 14 Days After Application, ECHCG
[11] = Oryza sativa, rice (Oryza sativa), 14 d, read-out: Visual Growth Reduction (%) 14 Days After Application, ORYSA
[12] = Setaria faberi, giant foxtail (Setaria faberi), 14 d, read-out: Visual Growth Reduction (%) 14 Days After Application, SETFA
[13] = Triticum aestivum, wheat, spring (Triticum aestivum), 14 d, read-out: Visual Growth Reduction (%) 14 Days After Application, TRZAS
[14] = Zea mays, maize, corn (Zea mays), 14 d, read-out: Visual Growth Reduction (%) 14 Days After Application, ZEAMX
[15] = Cyperus esculentus, yellow nutsedge (Cyperus esculentus), 14 days after application, read-out: Visual Growth Reduction (%) 14 Days After Application CYPES
[16] = Echinochloa crus-galli, barnyardgrass (Echinochloa crus-galli), 14 days after application, read-out: Visual Growth Reduction (%) 14 Days After Application ECHCG
[17] = Oryza sativa, rice (Oryza sativa), 14 days after application, read-out: Visual Growth Reduction (%) 14 Days After Application ORYSA
[18] = Setaria faberi, giant foxtail (Setaria faberi), 14 days after application, read-out: Visual Growth Reduction (%) 14 Days After Application SETFA
[19] = Triticum aestivum, wheat, spring (Triticum aestivum), 14 days after application, read-out: Visual Growth Reduction (%) 14 Days After Application TRZAS
[20] = Zea mays, maize, corn (Zea mays), 14 days after application, read-out: Visual Growth Reduction (%) 14 Days After Application ZEAMX

melting point: 184 to 186 °C
SMILES: COC(=O)c1nc(-c2ccc(Cl)c3occc23)c(F)c(N)c1Cl [Compound 2.16, Methyl 4-amino-3-chloro-6-(7-chlorobenzofuran-4-yl)-5-fluoropicolinate]
pest or weed control at 35 g/ha [1, 3]: 85 to 94%
pest or weed control at 70 g/ha [1, 3]: 95 to 100%
pest or weed control at 140 g/ha [1, 3]: 95 to 100%
pest or weed control at 35 g/ha [1, 4]: 95 to 100%
pest or weed control at 70 g/ha [1, 4]: 95 to 100%
pest or weed control at 140 g/ha [1, 4]: 95 to 100%
pest or weed control at 35 g/ha [1, 5]: 45 to 59%
pest or weed control at 70 g/ha [1, 5]: 60 to 74%
pest or weed control at 140 g/ha [1, 5]: 60 to 74%
pest or weed control at 35 g/ha [1, 6]: 95 to 100%
pest or weed control at 70 g/ha [1, 6]: 95 to 100%
pest or weed control at 140 g/ha [1, 6]: 95 to 100%
pest or weed control at 35 g/ha [1, 7]: 0 to 29%
pest or weed control at 70 g/ha [1, 7]: 0 to 29%
pest or weed control at 140 g/ha [1, 7]: 0 to 29%
pest or weed control at 35 g/ha [1, 8]: 95 to 100%
pest or weed control at 70 g/ha [1, 8]: 95 to 100%
pest or weed control at 140 g/ha [1, 8]: 95 to 100%
pest or weed control at 35 g/ha [2, 9]: 0 to 29%
pest or weed control at 70 g/ha [2, 9]: 0 to 29%
pest or weed control at 140 g/ha [2, 9]: 0 to 29%
pest or weed control at 35 g/ha [2, 10]: 0 to 29%
pest or weed control at 70 g/ha [2, 10]: 0 to 29%
pest or weed control at 140 g/ha [2, 10]: 0 to 29%
pest or weed control at 35 g/ha [2, 11]: 0 to 29%
pest or weed control at 70 g/ha [2, 11]: 0 to 29%
pest or weed control at 140 g/ha [2, 11]: 0 to 29%
pest or weed control at 35 g/ha [2, 12]: 0 to 29%
pest or weed control at 70 g/ha [2, 12]: 0 to 29%
pest or weed control at 140 g/ha [2, 12]: 0 to 29%
pest or weed control at 35 g/ha [2, 13]: 0 to 29%
pest or weed control at 70 g/ha [2, 13]: 0 to 29%
pest or weed control at 140 g/ha [2, 13]: 0 to 29%
pest or weed control at 35 g/ha [2, 14]: 45 to 59%
pest or weed control at 70 g/ha [2, 14]: 95 to 100%
pest or weed control at 140 g/ha [2, 14]: 95 to 100%

melting point: 176 to 177 °C
SMILES: Nc1cc(-c2ccc3ccsc3c2)nc(C(=O)O)c1Cl [Compound 3.16]
pest or weed control at 35 g/ha [1, 3]: 60 to 74%
pest or weed control at 70 g/ha [1, 3]: 60 to 74%
pest or weed control at 140 g/ha [1, 3]: 75 to 84%
pest or weed control at 35 g/ha [1, 4]: 85 to 94%
pest or weed control at 70 g/ha [1, 4]: 95 to 100%
pest or weed control at 140 g/ha [1, 4]: 85 to 94%
pest or weed control at 35 g/ha [1, 5]: 0 to 29%
pest or weed control at 70 g/ha [1, 5]: 0 to 29%
pest or weed control at 140 g/ha [1, 5]: 45 to 59%
pest or weed control at 35 g/ha [1, 6]: 85 to 94%
pest or weed control at 70 g/ha [1, 6]: 85 to 94%
pest or weed control at 140 g/ha [1, 6]: 85 to 94%
pest or weed control at 35 g/ha [1, 7]: 60 to 74%
pest or weed control at 70 g/ha [1, 7]: 60 to 74%
pest or weed control at 140 g/ha [1, 7]: 60 to 74%
pest or weed control at 35 g/ha [1, 8]: 0 to 29%
pest or weed control at 70 g/ha [1, 8]: 0 to 29%
pest or weed control at 140 g/ha [1, 8]: 0 to 29%
pest or weed control at 35 g/ha [2, 15]: 0 to 29%
pest or weed control at 70 g/ha [2, 15]: 0 to 29%
pest or weed control at 140 g/ha [2, 15]: 45 to 59%
pest or weed control at 35 g/ha [2, 16]: 75 to 84%
pest or weed control at 70 g/ha [2, 16]: 75 to 84%
pest or weed control at 140 g/ha [2, 16]: 75 to 84%
pest or weed control at 35 g/ha [2, 17]: 0 to 29%
pest or weed control at 70 g/ha [2, 17]: 0 to 29%
pest or weed control at 140 g/ha [2, 17]: 0 to 29%
pest or weed control at 35 g/ha [2, 18]: 0 to 29%
pest or weed control at 70 g/ha [2, 18]: 0 to 29%
pest or weed control at 140 g/ha [2, 18]: 0 to 29%
pest or weed control at 35 g/ha [2, 19]: 0 to 29%
pest or weed control at 70 g/ha [2, 19]: 0 to 29%
pest or weed control at 140 g/ha [2, 19]: 0 to 29%
pest or weed control at 35 g/ha [2, 20]: 60 to 74%
pest or weed control at 70 g/ha [2, 20]: 60 to 74%
pest or weed control at 140 g/ha [2, 20]: 75 to 84%

Reference: patent US20170050957A1, “4-AMINO-6-(HETEROCYCLIC)PICOLINATES AND 6-AMINO-2-(HETEROCYCLIC)PYRIMIDINE-4-CARBOXYLATES AND THEIR USE AS HERBICIDES” (Dow AgroSciences LLC, priority 2013, published 2017)
